What was measured:
cathepsin G (cat G) = molecular target: T1, cathepsin G (cat G) (Homo sapiens, UniProt P08311); assay: Inactivation of cathepsin G by biotin-isocoumarins (incubation method); type: biochemical; details: inhibitor 75-400 μM, pH 7.5, 25° C.
T1 sequence (P08311 21-255): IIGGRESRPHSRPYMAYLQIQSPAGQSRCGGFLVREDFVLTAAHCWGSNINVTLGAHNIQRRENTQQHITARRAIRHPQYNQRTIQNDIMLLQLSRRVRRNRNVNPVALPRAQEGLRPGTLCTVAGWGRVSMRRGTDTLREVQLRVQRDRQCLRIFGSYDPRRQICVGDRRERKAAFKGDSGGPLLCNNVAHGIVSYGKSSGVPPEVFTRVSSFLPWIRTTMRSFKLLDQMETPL
Procedure: (§1) Inactivation rates of serine proteases by substituted isocoumarins were measured by the incubation method. An aliquot of inhibitor (25 or 50 μl) in Me2 SO was added to a buffered enzyme solution (0.01-2.3 μM) to initiate the inactivation. Aliquots (50-100 μl) were withdrawn at various intervals and the residual enzymatic activity was measured. Me2 SO concentration in the reaction mixture was 8-12% (v/v). 0.1M Hepes, 0.5M NaCl, pH 7.5 buffer was utilized for the assays of chymotrypsin, cathepsin G (cat G), porcine pancreatic elastase (PPE), human leukocyte elastase (HLE) and rat granule serine proteases. 0.1M Hepes, 0.01M CaCl2, pH 7.5 buffer was utilized for the assays of trypsin and human recombinant (HR) granzyme A. The inhibitor concentrations are shown in the Tables I and II. Peptide nitroanilides with appropriate sequence were used as substrates for various serine proteases. All peptide 4-nitroanilide hydrolysis was measured at 410 nm (ε410 =8800M^-1 cm^-1; Erlanger et al., Arch. Biochem. Biophys. 95, pp 271-278 (1961), incorporated herein by reference). Peptide thioester hydrolysis rates were measured with assay mixtures containing 4,4'-dithiodipyridine (ε324 =19800M^-1 cm^-1; Grasetti & Murray, Arch. Biochem. Biophys. 119, pp. 41-49 (1967), incorporated herein by reference). First order inactivation rate constant (kobs) were obtained from plots of ln (vt /vo) vs time, and the correlation coefficients were greater than 0.98.
(§2) ^a Inhibition was measured in 0.1 M Hepes, 0.5 M NaCl (or 0.01 M
(§3) CaCl2), pH 7.5 buffer, 5-10% Me2 SO and at 25° C.
SucVal-Pro-NA (0.48 mM) was used as the substrate for chymotrypsin and ca
(§4) G. MeOSuc-Ala-Ala-Pro-Val-NA (0.24-0.47 mM) and SucAla-Ala-Ala-NA
^c Inhibitor concentrations were 75-400 μM.
(§5) ^h No inhibition after 10 min of incubation of inhibitor and enzyme.
(§6) ^i Percentage of inhibition after 10 min of incubation of inhibitor

[1] = molecular target: T2, human leukocyte elastase (HLE) (Homo sapiens, UniProt P08246); assay: Inactivation of human leukocyte elastase by biotin-isocoumarins (incubation method); type: biochemical; details: inhibitor 1.6-210 μM; pH 7.5, 25° C.; read-out: kobs/[I] HLE
T2 sequence (P08246 30-267): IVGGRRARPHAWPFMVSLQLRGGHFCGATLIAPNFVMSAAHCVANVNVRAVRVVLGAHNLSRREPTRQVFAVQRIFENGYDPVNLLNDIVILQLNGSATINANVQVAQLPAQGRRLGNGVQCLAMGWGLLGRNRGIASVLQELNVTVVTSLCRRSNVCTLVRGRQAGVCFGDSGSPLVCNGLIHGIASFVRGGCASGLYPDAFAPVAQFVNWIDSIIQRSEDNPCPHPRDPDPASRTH
Procedure: as §1, §2, §3, §4
(0.29-0.48 mM) were used as the substrate for HLE and PPE respectively.
^d Inhibitor concentrations were 1.6-210 μM.

[2] = molecular target: T3, human recombinant (HR) granzyme A (Homo sapiens, UniProt P12544); assay: Inactivation of human recombinant granzyme A by biotin-isocoumarins (incubation method); type: biochemical; details: inhibitor 160-210 μM, pH 7.5, 25° C.
T3 sequence (P12544 29-262): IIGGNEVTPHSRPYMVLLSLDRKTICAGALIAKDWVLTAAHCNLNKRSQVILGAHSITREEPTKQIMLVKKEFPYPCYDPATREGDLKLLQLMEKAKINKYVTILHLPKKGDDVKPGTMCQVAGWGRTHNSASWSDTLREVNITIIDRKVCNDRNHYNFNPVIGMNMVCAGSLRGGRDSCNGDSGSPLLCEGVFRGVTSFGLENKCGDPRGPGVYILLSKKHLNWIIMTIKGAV
Procedure: as §1, §2, §3
ZGlu-Phe-Arg-NA (0.032 mM) was a substrate for trypsin. ZArg-SBzl (0.120
mM) was a substrate for human recombinant (HR) granzyme A.
^g Inhibitor concentrations were 160-210 μM.
as §5, §6

PPE = PPE (Sus scrofa, UniProt P00772); assay: Elution of inhibited PPE from avidin-agarose column with NH2OH; type: biochemical, porcine
Chain of PPE (P00772 27-266): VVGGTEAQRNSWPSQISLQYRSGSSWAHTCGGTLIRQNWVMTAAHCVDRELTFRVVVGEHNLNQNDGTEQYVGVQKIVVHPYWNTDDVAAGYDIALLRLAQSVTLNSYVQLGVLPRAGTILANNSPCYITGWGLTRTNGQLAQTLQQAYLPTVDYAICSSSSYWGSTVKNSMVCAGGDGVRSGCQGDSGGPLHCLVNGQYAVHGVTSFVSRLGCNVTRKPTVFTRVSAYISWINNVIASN
Procedure: Elution of inhibited PPE by 7-[6-(6-biotinylaminocaproyl)aminocaproyl]amino-4-chloro-3-methoxyisocoumarin from avidin-agarose column with NH2 OH.
PPE (1 mg, […]) was inhibited by biotinylated isocoumarin (0.5 mmole) in 0.1M Hepes, 0.5M NaCl, pH 7.5 buffer at 25° C. for 10 min, 7% of residual enzyme activity was found. Excess of inhibitors was removed by Sephadex G-25 column and the inhibited PPE was eluted with 0.1M acetate, 0.5M NaCl, pH 5.0 buffer and had 16% of enzyme activity. This inhibited enzyme solution was then applied on the avidin-agarose column and 34% of protein went through (measured by optical density at 280 nm). The column was washed with pH 5.0 acetate buffer, then eluted with 0.1M Hepes, 0.5M NaCl, and 0.5M NH2 OH, pH 7.5 buffer and 37% of protein was eluted out (measured by OD280) from the column. In these protein fractions, 40% of PPE activity was detected.

COc1oc(=O)c2cc(NC(=O)CCCCCNC(=O)CCCCCNC(=O)CCCCC3SCC4NC(=O)NC43)ccc2c1Cl (stereo not shown) [Compound 6, 7-[6-(6-biotinylaminocaproyl)aminocaproyl]-amino-4-chloro-3-methoxyisocoumarin]
kinact/KI (cathepsin G (cat G); NI = no inhibition after 10 min of incubation, read-out: kobs/[I] Cat. G): 2.2 M⁻¹ s⁻¹
kinact/KI [1]: 37500 M⁻¹ s⁻¹
Percentage of inhibition of HR Granzyme A after 10 min of incubation of inhibitor and enzyme [2]: 5%
enzyme activity of inhibited PPE after Sephadex G-25 removal of excess inhibitor (PPE; eluted with 0.1M acetate, 0.5M NaCl, pH 5.0): 16%
PPE activity detected in eluted protein fractions (PPE; fractions eluted with 0.5M NH2OH): 40%
residual enzyme activity of PPE after inhibition (PPE; pH 7.5 buffer, 25° C., 10 min): 7%

O=C(CCCCCNC(=O)CCCCC1SCC2NC(=O)NC21)NCCCCCC(=O)Nc1ccc2c(Cl)c(OCCc3ccccc3)oc(=O)c2c1 (stereo not shown) [Compound 7, 7-[6-(6-biotinylaminocaproyl)aminocaproyl]-amino-4-chloro-3-(2-phenylethoxy)-isocoumarin]
kinact/KI [1]: 230 M⁻¹ s⁻¹

O=C(CCCCC1SCC2NC(=O)NC21)NCCNC(=O)CNC(=O)Nc1ccc2c(Cl)c(OCCc3ccccc3)oc(=O)c2c1 (stereo not shown) [Compound 8, 7-biotin-NH(CH2)2 NH--COCH2 NHCONH-4-chloro-3-(2-phenylethoxy)isocoumarin]
Percentage of inhibition of Cat. G after 10 min of incubation of inhibitor and enzyme (cathepsin G (cat G); 10 min): 19%
kinact/KI [1]: 6.6 M⁻¹ s⁻¹
Percentage of inhibition of HR Granzyme A after 10 min of incubation of inhibitor and enzyme [2]: 18%

From US5306824A, “Biotinylated isocoumarins” (Georgia Tech Research Corporation, priority 1992, dated 1994)
